Measurements reported in PubChem BioAssay AID256 (DTP/NCI, 2004).
Values joined by “and” are separate entries in the source; they are usually repeats but may differ in a detail not shown here. Equal values may be shown once. Toxic doses and inconclusive results are not listed.

Tested on: CD2F1 mice, L1210 leukemia ip, survival T/C
Assay: NCI In Vivo Anticancer Drug Screen. Data for tumor model L1210 Leukemia (intraperitoneal) in CD2F1 (CDF1) mice
Conditions: higher = longer survival
How it was run: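 Ratio T/C, where T is the treated-group value and C the vehicle-dosed control value, from mice implanted with a transplantable tumor.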

[1] = endpoint: mean survival time, dose: 100.0 mg/kg/injection, schedule: Q01DX009 (ip), vehicle: saline with Tween-80
[2] = endpoint: mean survival time, dose: 200.0 mg/kg/injection, schedule: Q01DX009 (ip), vehicle: saline with Tween-80
[3] = endpoint: mean survival time, dose: 400.0 mg/kg/injection, schedule: Q01DX009 (ip), vehicle: saline with Tween-80
[4] = endpoint: mean survival time, dose: 12.5 mg/kg/injection, schedule: Q01DX001 (ip), vehicle: saline
[5] = endpoint: mean survival time, dose: 25.0 mg/kg/injection, schedule: Q01DX001 (ip), vehicle: saline
[6] = endpoint: mean survival time, dose: 100.0 mg/kg/injection, schedule: Q04DX003 (ip), vehicle: saline with Tween-80
[7] = endpoint: mean survival time, dose: 200.0 mg/kg/injection, schedule: Q04DX003 (ip), vehicle: saline with Tween-80
[8] = endpoint: mean survival time, dose: 400.0 mg/kg/injection, schedule: Q04DX003 (ip), vehicle: saline with Tween-80
[9] = endpoint: mean survival time, dose: 75.0 mg/kg/injection, schedule: Q01DX001 (ip), vehicle: saline
[10] = endpoint: mean survival time, dose: 100.0 mg/kg/injection, schedule: Q04DX003 (ip), vehicle: saline
[11] = endpoint: mean survival time, dose: 150.0 mg/kg/injection, schedule: Q01DX001 (ip), vehicle: saline

Structure (SMILES): Cc1cc2c(C(C)C)c(O)c(O)c(C=O)c2c(O)c1-c1c(C)cc2c(C(C)C)c(O)c(O)c(C=O)c2c1O
- T/C (endpoint: median survival time, dose: 6.25 mg/kg/injection, schedule: Q01DX009 (ip), vehicle: saline with Tween-80): 110 % of control
- T/C (endpoint: median survival time, dose: 12.5 mg/kg/injection, schedule: Q01DX009 (ip), vehicle: saline with Tween-80): 101 % of control

Structure (SMILES): O=C(O)C1C2C=CC(O2)C1CO (stereo not given)
- T/C (endpoint: mean survival time, dose: 25.0 mg/kg/injection, schedule: Q04DX002 (ip), vehicle: saline): 103 % of control
- T/C (endpoint: mean survival time, dose: 50.0 mg/kg/injection, schedule: Q04DX002 (ip), vehicle: saline): 100 % of control
- T/C (endpoint: mean survival time, dose: 100.0 mg/kg/injection, schedule: Q04DX002 (ip), vehicle: saline): 100 % of control

Structure (SMILES): CCOC(=O)c1ccc(Nc2nnc(-c3c(OC)cc(OC)cc3OC)s2)cc1
- T/C (endpoint: mean survival time, dose: 25.0 mg/kg/injection, schedule: Q01DX009 (ip), vehicle: saline with Tween-80): 88 % of control
- T/C (endpoint: mean survival time, dose: 50.0 mg/kg/injection, schedule: Q01DX009 (ip), vehicle: saline with Tween-80): 88 % of control
- T/C [1]: 89 % of control
- T/C [2]: 88 % of control
- T/C [3]: 88 % of control

Structure (SMILES): C[N+](C)(C)C1CCCC1O (stereo not given)
- T/C (endpoint: mean survival time, dose: 25.0 mg/kg/injection, schedule: Q04DX002 (ip), vehicle: saline with Tween-80): 98 % of control
- T/C (endpoint: mean survival time, dose: 50.0 mg/kg/injection, schedule: Q04DX002 (ip), vehicle: saline with Tween-80): 98 % of control
- T/C (endpoint: mean survival time, dose: 100.0 mg/kg/injection, schedule: Q04DX002 (ip), vehicle: saline with Tween-80): 95 % of control
- T/C (endpoint: mean survival time, dose: 200.0 mg/kg/injection, schedule: Q04DX002 (ip), vehicle: saline with Tween-80): 95 % of control

Structure (SMILES): CCC12CCC(=O)C=C1CCCC2=O (stereo not given)
- T/C (endpoint: mean survival time, dose: 100.0 mg/kg/injection, schedule: Q04DX003 (ip), vehicle: saline sonified): 95 % of control

Structure (SMILES): Oc1ccc(C(c2ccccc2)(c2ccccc2)c2ccccc2)cc1
- T/C [1]: 94 % of control
- T/C [2]: 89 % of control
- T/C [3]: 91 % of control

Structure (SMILES): N#CCc1ccc2c(c1)Sc1ccccc1O2
- T/C (endpoint: mean survival time, dose: 100.0 mg/kg/injection, schedule: Q04DX003 (ip), vehicle: Klucel (hydroxypropylcellulose) (HPC)): 108 % of control
- T/C (endpoint: mean survival time, dose: 200.0 mg/kg/injection, schedule: Q04DX003 (ip), vehicle: Klucel (hydroxypropylcellulose) (HPC)): 98 % of control
- T/C (endpoint: mean survival time, dose: 400.0 mg/kg/injection, schedule: Q04DX003 (ip), vehicle: Klucel (hydroxypropylcellulose) (HPC)): 100 % of control

Structure (SMILES): O=S(=O)(O)c1ccc(N=Nc2cc(O)cc3ccccc23)cc1
- T/C (endpoint: mean survival time, dose: 6.25 mg/kg/injection, schedule: Q01DX001 (ip), vehicle: saline): 96 % of control
- T/C [4]: 92 % of control
- T/C [5]: 88 % of control
- T/C (endpoint: mean survival time, dose: 100.0 mg/kg/injection, schedule: Q01DX001 (ip), vehicle: saline): 86 % of control
- T/C (endpoint: mean survival time, dose: 200.0 mg/kg/injection, schedule: Q01DX001 (ip), vehicle: saline): 88 % of control
- T/C (endpoint: mean survival time, dose: 400.0 mg/kg/injection, schedule: Q01DX001 (ip), vehicle: saline): 96 % of control

Structure (SMILES): CN(C)c1n[nH]c(=S)s1
- T/C [6]: 100 % of control
- T/C [7]: 100 % of control
- T/C [8]: 88 % of control

Structure (SMILES): CSc1cc(N)nc2c1nnn2C1OC(CO)C(O)C1O (stereo not given)
- T/C (endpoint: mean survival time, dose: 12.5 mg/kg/injection, schedule: Q01DX005 (ip), vehicle: water): 94 % of control
- T/C (endpoint: mean survival time, dose: 25.0 mg/kg/injection, schedule: Q01DX005 (ip), vehicle: water): 100 % of control
- T/C (endpoint: mean survival time, dose: 50.0 mg/kg/injection, schedule: Q01DX005 (ip), vehicle: water): 95 % of control
- T/C (endpoint: mean survival time, dose: 100.0 mg/kg/injection, schedule: Q01DX005 (ip), vehicle: water): 90 % of control
- T/C (endpoint: mean survival time, dose: 200.0 mg/kg/injection, schedule: Q01DX005 (ip), vehicle: water): 87 % of control

Structure (SMILES): C1OC2OC3OCOC3C2O1 (stereo not given)
- T/C [6]: 101 % of control
- T/C [7]: 95 % of control
- T/C [8]: 95 % of control

Structure (SMILES): Nc1ccc(O)c2ccccc12
- T/C (endpoint: mean survival time, dose: 1.5 mg/kg/injection, schedule: Q04DX003 (ip), vehicle: other): 111 % of control
- T/C (endpoint: mean survival time, dose: 3.0 mg/kg/injection, schedule: Q04DX003 (ip), vehicle: other): 102 % of control

Structure (SMILES): Cc1nc(=O)cnn1C1OC(CO)C(O)C1O (stereo not given)
- T/C (endpoint: mean survival time, dose: 12.5 mg/kg/injection, schedule: Q01DX005 (ip), vehicle: distilled water + Tween-80): 102 % of control
- T/C (endpoint: mean survival time, dose: 25.0 mg/kg/injection, schedule: Q01DX005 (ip), vehicle: distilled water + Tween-80): 102 % of control
- T/C (endpoint: mean survival time, dose: 50.0 mg/kg/injection, schedule: Q01DX005 (ip), vehicle: distilled water + Tween-80): 97 % of control
- T/C (endpoint: mean survival time, dose: 100.0 mg/kg/injection, schedule: Q01DX005 (ip), vehicle: distilled water + Tween-80): 103 % of control
- T/C (endpoint: mean survival time, dose: 200.0 mg/kg/injection, schedule: Q01DX005 (ip), vehicle: distilled water + Tween-80): 105 % of control

Structure (SMILES): CC(=O)[O][Hg][c]1cc(-c2ccc(N=Nc3c(S(=O)(=O)O)cc4cccc(N)c4c3O)cc2)ccc1N=Nc1c(S(=O)(=O)O)cc2cccc(N)c2c1O
- T/C (endpoint: mean survival time, dose: 6.25 mg/kg/injection, schedule: Q04DX003 (ip), vehicle: saline with Tween-80): 98 % of control
- T/C (endpoint: mean survival time, dose: 12.5 mg/kg/injection, schedule: Q04DX003 (ip), vehicle: saline with Tween-80): 96 % of control
- T/C (endpoint: mean survival time, dose: 25.0 mg/kg/injection, schedule: Q04DX003 (ip), vehicle: saline with Tween-80): 104 % of control

Structure (SMILES): NC(N)=NC(N)=Nc1cnccn1
- T/C (endpoint: mean survival time, dose: 25.0 mg/kg/injection, schedule: Q01DX009 (ip), vehicle: saline sonified): 91 % of control
- T/C (endpoint: mean survival time, dose: 25.0 mg/kg/injection, schedule: Q04DX003 (ip), vehicle: saline): 104 % of control
- T/C (endpoint: mean survival time, dose: 50.0 mg/kg/injection, schedule: Q01DX009 (ip), vehicle: saline sonified): 97 % of control
- T/C (endpoint: mean survival time, dose: 50.0 mg/kg/injection, schedule: Q04DX003 (ip), vehicle: saline): 98 % of control
- T/C [9]: 95 % of control
- T/C (endpoint: mean survival time, dose: 100.0 mg/kg/injection, schedule: Q01DX009 (ip), vehicle: saline sonified): 95 % of control
- T/C [10]: 104 % of control
- T/C [11]: 93 % of control

Structure (SMILES): COc1ccc(C(=O)CC(=O)NC(=O)c2ccc(OC)cc2)cc1
- T/C (endpoint: mean survival time, dose: 100.0 mg/kg/injection, schedule: Q01DX001 (ip), vehicle: other): 96 % of control
- T/C (endpoint: mean survival time, dose: 200.0 mg/kg/injection, schedule: Q01DX001 (ip), vehicle: other): 97 % of control
- T/C (endpoint: mean survival time, dose: 400.0 mg/kg/injection, schedule: Q01DX001 (ip), vehicle: other): 96 % of control

Structure (SMILES): CN(CCCCN(C)CCOS(C)(=O)=O)CCOS(C)(=O)=O
- T/C (endpoint: mean survival time, dose: 0.4 mg/kg/injection, schedule: Q01DX009 (ip), vehicle: saline): 112 % of control
- T/C (endpoint: mean survival time, dose: 0.8 mg/kg/injection, schedule: Q01DX009 (ip), vehicle: saline): 115 % of control
- T/C (endpoint: mean survival time, dose: 3.6 mg/kg/injection, schedule: Q01DX001 (ip), vehicle: saline): 110 % of control
- T/C (endpoint: mean survival time, dose: 4.0 mg/kg/injection, schedule: Q01DX009 (ip), vehicle: saline): 103 % of control
- T/C (endpoint: mean survival time, dose: 8.3 mg/kg/injection, schedule: Q01DX001 (ip), vehicle: saline): 118 % of control
- T/C [4]: 150 % of control
- T/C [5]: 156 % of control

Structure (SMILES): O=C(Cc1nc2ccccc2[nH]c1=O)N/N=C/c1ccc2c(c1)CCC2
- T/C [1]: 92 % of control
- T/C [2]: 88 % of control
- T/C [3]: 88 % of control

Structure (SMILES): NC1CCCCC1N.O=C([O-])c1ccc(N=Nc2cccc([N+](=O)[O-])c2)cc1O.O=C([O-])c1ccc(N=Nc2cccc([N+](=O)[O-])c2)cc1O.[Pt+4]
- T/C (endpoint: median survival time, dose: 3.12 mg/kg/injection, schedule: Q04DX003 (ip), vehicle: saline with Tween-80): 150 % of control and 301 % of control
- T/C (endpoint: median survival time, dose: 6.25 mg/kg/injection, schedule: Q04DX003 (ip), vehicle: saline with Tween-80): 190 % of control and 247 % of control
- T/C (endpoint: median survival time, dose: 12.5 mg/kg/injection, schedule: Q04DX003 (ip), vehicle: saline with Tween-80): 361 % of control and 375 % of control
- T/C (endpoint: median survival time, dose: 50.0 mg/kg/injection, schedule: Q04DX003 (ip), vehicle: saline with Tween-80): 89 % of control

Structure (SMILES): NC(=O)C1(Cl)CC2C=CC1C2 (stereo not given)
- T/C [10]: 94 % of control

Structure (SMILES): CC(=O)Nc1ccccc1C#N
- T/C [1]: 98 % of control
- T/C [2]: 98 % of control
- T/C [3]: 113 % of control

Structure (SMILES): CCSc1n[nH]c(=O)nc1SC
- T/C [9]: 98 % of control
- T/C [11]: 96 % of control
- T/C (endpoint: mean survival time, dose: 300.0 mg/kg/injection, schedule: Q01DX001 (ip), vehicle: saline): 97 % of control

Structure (SMILES): CCCCCCCCCCCCCCCCSC(=S)OCC
- T/C (endpoint: mean survival time, dose: 100.0 mg/kg/injection, schedule: Q01DX001 (ip), vehicle: saline with Tween-80): 95 % of control
- T/C [1]: 96 % of control
- T/C (endpoint: mean survival time, dose: 200.0 mg/kg/injection, schedule: Q01DX001 (ip), vehicle: saline with Tween-80): 87 % of control
- T/C [2]: 95 % of control
- T/C (endpoint: mean survival time, dose: 400.0 mg/kg/injection, schedule: Q01DX001 (ip), vehicle: saline with Tween-80): 95 % of control
- T/C [3]: 95 % of control

Structure (SMILES): CCOC(CNC(=O)NC1CCCCC1)OCC
- T/C [1]: 113 % of control
- T/C [6]: 103 % of control
- T/C [2]: 104 % of control
- T/C [7]: 104 % of control
- T/C [3]: 108 % of control
- T/C [8]: 93 % of control

Structure (SMILES): COC(=O)CCCC1CCC(=NNc2ccc([N+](=O)[O-])cc2[N+](=O)[O-])CC1 (stereo not given)
- T/C [6]: 86 % of control
- T/C [7]: 96 % of control
- T/C [8]: 93 % of control
